Reference: patent US20130072517A1 (Avanir Pharmaceuticals, Inc., priority 2002, published 2013)

Experiments:
[1] = Clinical Study #2: plasma pharmacokinetics of dextromethorphan, dextrorphan and quinidine, single and multiple dose; settings: for AUC(0-t) / Cmax / half-life / Tmax: human, in vivo, mean, 30 mg DM HBr/25 mg Q sulfate capsule every 12 hours; for AUC(0-t): AUC (0-12) (plasma); for Cmax: Cmax (plasma); for half-life: T ½ el (plasma); for Tmax: Tmax (plasma)
Method: Descriptive statistics for each parameter, including mean, median, standard deviation, coefficient of variation, N, minimum, and maximum were calculated for all of the subjects by Day. In addition, descriptive statistics were presented by the subgroups: extensive metabolizer (EM) and poor metabolizer (PM).
The ANOVA model included the factors group (EM or PM), subject within group, day, and the interaction term day by group. The group effect was tested using the subject within group mean square, and all other main effects were tested using the residual error (error mean square). In addition, tests of the hypotheses Day 1=Day 4, Day 1=Day 8, and Day 4=Day 8 were performed.

[2] = Clinical Study #5: concentrations in plasma of DM, DX and Q and correlation with pain intensity; format: in vivo, human; settings: final visit; for Concentration in plasma, Mean / Concentration in plasma, Median: extensive metabolizers
Method: Subjects visited the clinic every two weeks during the four-week duration of the study and were contacted by telephone during weeks without clinic visits. At each subsequent study visit or weekly phone call, the subjects were given the Pain Intensity Rating Scale and the Pain Relief Rating Scale and were queried regarding any adverse events that might have occurred since their previous visit. Subjects were administered the Peripheral Neuropathy Quality of Life (QOL) Instrument on Days 1 and 29 (or the final visit). Blood samples were taken at the visits on Day 15 and Day 29 to determine concentrations in plasma of DM, DX, and Q.

[3] = system: ALS subjects with pseudobulbar affect; test: Clinical Study #4: QOL and QOR visual analog scales; format: in vivo, human
Method: Subjects completed the CNS-LS questionnaire and visual analog scales assessing quality of life (QOL) and quality of relationships (QOR) every two weeks (Days 1, 15, and 29) during the treatment period. A clinical psychologist, or other approved clinician, administered the Hamilton Rating Scale for Depression (HRSD) at the Screening Visit and on Day 29. Safety was evaluated on Day 15 and Day 29 by examining adverse events, results of physical examinations, vital signs, clinical laboratory values, and resting electrocardiograms (ECGs). In addition to blood samples taken to provide clinical laboratory data, blood was also taken for pharmacokinetic analysis and CYP2D6 genotyping. Each subject completed a diary in which the number of episodes experienced, medications taken, and any adverse events were recorded daily.
The primary efficacy variable was the CNS-LS score. All efficacy variables involving a change were determined by the baseline score being subtracted from the mean of the non-missing scores on Days 15 and 29. The secondary efficacy variables were laughing/crying episodes, QOL scores, and QOR scores. […]
Secondary efficacy was assessed by using two, 10-cm visual analog scales (VAS). One scale asked subjects to rate how much uncontrollable laughter, tearfulness, or anger had affected the overall quality of their life during the past week, and one scale asked subjects to rate how much uncontrollable laughter, tearfulness, or anger had affected the quality of their relationships with others during the past week. Each scale required less than one minute to complete. The subjects recorded episodes of pathological laughing and crying in a diary daily.

[4] = All Days: mean of scores on Days 15 and 29 minus Day 1

In the case of `COc1ccc2c(c1)[C@]13CCCCC1[C@H](C2)N(C)CC3` (single isomer, unassigned; (+)) [Dextromethorphan, (+)-3-methoxy-N-methylmorphinan], the AUC(0-t) ([1]; Day 1, All Subjects) was 0.148 µg·h/mL, the AUC(0-t) ([1]; Day 1, EM) was 0.133 µg·h/mL and the AUC(0-t) ([1]; Day 1, PM) was 0.198 µg·h/mL. For the same compound, the AUC(0-t) ([1]; Day 4, All Subjects) was 0.886 µg·h/mL, the AUC(0-t) ([1]; Day 4, EM) was 0.812 µg·h/mL and the AUC(0-t) ([1]; Day 4, PM) was 1.15 µg·h/mL. It also gave an AUC(0-t) ([1]; Day 8, All Subjects) of 1.16 µg·h/mL, an AUC(0-t) ([1]; Day 8, EM) of 1.05 µg·h/mL and an AUC(0-t) ([1]; Day 8, PM) of 1.53 µg·h/mL. For the same compound, the Cmax ([1]; Day 1, All Subjects) was 0.0173 µg/mL, the Cmax ([1]; Day 1, EM) was 0.0159 µg/mL and the Cmax ([1]; Day 1, PM) was 0.0223 µg/mL. For the same compound, the Cmax ([1]; Day 4, All Subjects) was 0.0831 µg/mL, the Cmax ([1]; Day 4, EM) was 0.0767 µg/mL and the Cmax ([1]; Day 4, PM) was 0.106 µg/mL. For the same compound, the Cmax ([1]; Day 8, All Subjects) was 0.105 µg/mL, the Cmax ([1]; Day 8, EM) was 0.0955 µg/mL and the Cmax ([1]; Day 8, PM) was 0.136 µg/mL. For the same compound, the half-life ([1]; Day 8, All Subjects) was 20.3 h, the half-life ([1]; Day 8, EM) was 13.1 h and the half-life ([1]; Day 8, PM) was 42 h. The Tmax ([1]; Day 1, All Subjects) was 7.11 h, the Tmax ([1]; Day 1, EM) was 6.85 h and the Tmax ([1]; Day 1, PM) was 8 h. The Tmax ([1]; Day 4, All Subjects) was 5.55 h, the Tmax ([1]; Day 4, EM) was 5.42 h and the Tmax ([1]; Day 4, PM) was 6 h. For the same compound, the Tmax ([1]; Day 8, All Subjects) was 5.77 h, the Tmax ([1]; Day 8, EM) was 5.99 h and the Tmax ([1]; Day 8, PM) was 4.99 h. The “Fold increase in AUC (0-12) from Day 1 to Day 8” value ([1]; poor metabolizers) was 6.1 fold, the “Concentration in plasma, Mean” value ([2]; DM/Q MTD 30 mg) was 0.059 µg/mL and the “Concentration in plasma, Median” value ([2]; DM/Q MTD 30 mg) was 0.0674 µg/mL. For the same compound, the “Concentration in plasma, Mean” value ([2]; DM/Q MTD 60 mg) was 0.0462 µg/mL, the “Concentration in plasma, Median” value ([2]; DM/Q MTD 60 mg) was 0.0015 µg/mL and the “Concentration in plasma, Mean” value ([2]; DM/Q MTD 90 mg) was 0.117 µg/mL. The “Concentration in plasma, Median” value ([2]; DM/Q MTD 90 mg) was 0.117 µg/mL, the “Concentration in plasma, Mean” value ([2]; DM/Q MTD 120 mg) was 0.1926 µg/mL and the “Concentration in plasma, Median” value ([2]; DM/Q MTD 120 mg) was 0.178 µg/mL. The “Concentration in plasma, Mean” value ([2]; Total, all MTDs) was 0.1537 µg/mL, the “Concentration in plasma, Median” value ([2]; Total, all MTDs) was 0.1445 µg/mL and the Concentration in plasma ([2]; poor metabolizer (MTD of 60 mg)) was 0.1264 µg/mL. For the same compound, the “Change in VAS QOL score, Max” value [3, 4] was 27, the “Change in VAS QOL score, Mean” value [3, 4] was −17.41 and the “Change in VAS QOL score, Median” value [3, 4] was −11.0. For the same compound, the “Change in VAS QOL score, Min” value [3, 4] was −90.5, the “Change in VAS QOR score, Max” value [3, 4] was 23.5 and the “Change in VAS QOR score, Mean” value [3, 4] was −9.98. For the same compound, the “Change in VAS QOR score, Median” value [3, 4] was −4.50, the “Change in VAS QOR score, Min” value [3, 4] was −71.0 and the “Change in VAS QOL score, Max” value ([3]; Day 15 minus Day 1) was 55. The “Change in VAS QOL score, Mean” value ([3]; Day 15 minus Day 1) was −17.14, the “Change in VAS QOL score, Median” value ([3]; Day 15 minus Day 1) was −13 and the “Change in VAS QOL score, Min” value ([3]; Day 15 minus Day 1) was −90. The “Change in VAS QOR score, Max” value ([3]; Day 15 minus Day 1) was 34, the “Change in VAS QOR score, Mean” value ([3]; Day 15 minus Day 1) was −11.75 and the “Change in VAS QOR score, Median” value ([3]; Day 15 minus Day 1) was −7. For the same compound, the “Change in VAS QOR score, Min” value ([3]; Day 15 minus Day 1) was −71, the “Change in VAS QOL score, Max” value ([3]; Day 29 minus Day 1) was 27 and the “Change in VAS QOL score, Mean” value ([3]; Day 29 minus Day 1) was −19.31. The “Change in VAS QOL score, Median” value ([3]; Day 29 minus Day 1) was −7, the “Change in VAS QOL score, Min” value ([3]; Day 29 minus Day 1) was −91 and the “Change in VAS QOR score, Max” value ([3]; Day 29 minus Day 1) was 26. For the same compound, the “Change in VAS QOR score, Mean” value ([3]; Day 29 minus Day 1) was −10.38, the “Change in VAS QOR score, Median” value ([3]; Day 29 minus Day 1) was −3.0 and the “Change in VAS QOR score, Min” value ([3]; Day 29 minus Day 1) was −71.
